≈ marks a conversion by molar mass, not a printed value. Where a name gives a salt, the structure may show the parent alone.
How the values were obtained:
[1] = system: animal tumor systems; conditions: reported in literature; cited from earlier work
[2] = system: mouse L1210 leukemia; assay: Prolongation of survival time of CDF1 mice inoculated intraperitoneally with L1210 leukemia cells; assay type: in vivo, mouse (CDF1); conditions: for inhibitory effects on mouse L1210 leukemia: summary statement in words
Method: Rhodirubin A and B show a marked antitumor activity with low toxicity in experimental animal tests and thus are therapeutically useful in inhibiting the growth of animal tumors. […] For example, CDF1 mice were inoculated intraperitoneally with 1 × 10^6 L1210 cells/mouse and 0.1-0.2 ml. of drug solution then administered intraperitoneally for 10 consecutive days. Observation was carried out for 30 days, and the % of prolongation of survival time to the control mice intraperitoneally administered with physiological saline was as follows: […]

[3] = system: Staph. aureus FDA 209P; assay: Minimum inhibitory concentration, broth dilution method; assay type: cell-based; conditions: Staphylococcus aureus, FDA209P
[4] = system: Staph. aureus Smith; assay: as above; assay type: cell-based; conditions: Staphylococcus aureus
[5] = system: B. subtilis ATCC 6633; assay: as above; assay type: cell-based; conditions: Bacillus subtilis, ATCC6633
[6] = system: B. cereus ATCC 9634; assay: as above; assay type: cell-based; conditions: Bacillus cereus, ATCC9634
[7] = system: B. megaterium NRRL-938; assay: as above; assay type: cell-based; conditions: Priestia megaterium, NRRL938
[8] = system: Sarcina lutea ATCC 9341; assay: as above; assay type: cell-based; conditions: Micrococcus luteus, ATCC9341
[9] = system: Micrococcus flavus; assay: as above; assay type: cell-based
[10] = system: Coryne: bovis; assay: as above; assay type: cell-based
[11] = system: Ps. fluorescens NIHJB-254; assay: as above; assay type: cell-based; conditions: Pseudomonas fluorescens, NIHJB254
[12] = system: Proteus morganii; assay: as above; assay type: cell-based; conditions: Morganella morganii
[13] = system: Mycobacterium smegmatis ATCC 607; assay: as above; assay type: cell-based; conditions: Mycolicibacterium smegmatis, ATCC607
[14] = system: Candida albicans IAM 4905; assay: as above; assay type: cell-based; conditions: IAM4905
[15] = system: Candida tropicalis IAM 4942; assay: as above; assay type: cell-based; conditions: IAM4942
[16] = in vivo; conditions: mouse, ip, mice, intraperitoneal injection
Description: The LD50 values upon intraperitoneal injection (in mice) of rhodirubin A and B are as follows: […]

[17] = system: gram-positive bacteria; assay: Antimicrobial activity (summary statement); assay type: cell-based; conditions: against gram-positive bacteria
[18] = system: solid and ascitic forms of malignant tumors in mammals, e.g. mouse leukemia L1210; assay: Inhibition of growth of solid and ascitic malignant tumors in mammals (summary statement); assay type: in vivo
[19] = Solubility
[20] = system: mammalian tumor cells; assay: Cytotoxicity to mammalian tumor cells in culture
[21] = Toxicity in experimental animal tests (summary statement); conditions: summary statement in words
[22] = in methanol, n-butanol, acetone, ethyl acetate, chloroform, toluene, benzene and dimethylsulfoxide
[23] = in water, n-hexane and petroleum ether

Compound	MIC [3] [µg/mL]	MIC [4] [µg/mL]	MIC [5] [µg/mL]	MIC [6] [µg/mL]	MIC [7] [µg/mL]	MIC [8] [µg/mL]	MIC [9] [µg/mL]	MIC [10] [µg/mL]	MIC [11] [µg/mL]	MIC [12] [µg/mL]	MIC [13] [µg/mL]	MIC [14] [µg/mL]	MIC [15] [µg/mL]	inhibitory effects on mouse L1210 leukemia [2]	LD50 [16] [mg/kg]	antimicrobial activity [17]	inhibition of growth of malignant tumors [18]	Solubility ([19]; in diethyl ether)	Solubility [19, 22]	Solubility [19, 23]	also measured
CC(=O)[C@]1(O)Cc2c(O)c3c(c(O)c2[C@@H](O[C@H]2C[C@H](N)[C@H](O)[C@H](C)O2)C1)C(=O)c1c(O)cccc1C3=O [carminomycin]																					activity against several animal tumor systems [1]: active against several animal tumor systems
CCC1(O)CC(OC2CC(N(C)C)C(OC3CCC(OC4CCC(O)C(C)O4)C(C)O3)C(C)O2)c2c(cc3c(c2O)C(=O)c2c(O)ccc(O)c2C3=O)C1C(=O)OC (centres unmarked) [rhodirubin B (HC1 salt)]																					Prolongation of the survival time T/C (%) ([2]; 0.6 mg./kg./day, i.p., 10 consecutive days, observed 30 days, vs physiological saline controls): 107%; Prolongation of the survival time T/C (%) ([2]; 1.25 mg./kg./day, i.p., 10 consecutive days, observed 30 days, vs physiological saline controls): 126%; Prolongation of the survival time T/C (%) ([2]; 2.5 mg./kg./day, i.p., 10 consecutive days, observed 30 days, vs physiological saline controls): 215%; Prolongation of the survival time T/C (%) ([2]; 5 mg./kg./day, i.p., 10 consecutive days, observed 30 days, vs physiological saline controls): 179%; Prolongation of the survival time T/C (%) ([2]; 8.5 mg./kg./day, i.p., 10 consecutive days, observed 30 days, vs physiological saline controls): 160%; Prolongation of the survival time T/C (%) ([2]; 10 mg./kg./day, i.p., 10 consecutive days, observed 30 days, vs physiological saline controls): 104%
CCC1(O)CC(OC2CC(N(C)C)C(OC3CC(O)C(OC4CCC(O)C(C)O4)C(C)O3)C(C)O2)c2c(cc3c(c2O)C(=O)c2c(O)ccc(O)c2C3=O)C1C(=O)OC (centres unmarked) [rhodirubin A (HC1 salt)]																					Prolongation of the survival time T/C (%) ([2]; ip, 0.6 mg/kg, 720 h): 102%; Prolongation of the survival time T/C (%) ([2]; ip, 1.25 mg/kg, 720 h): 117%; Prolongation of the survival time T/C (%) ([2]; ip, 2.5 mg/kg, 720 h): 167%; Prolongation of the survival time T/C (%) ([2]; ip, 5 mg/kg, 720 h): 195%; Prolongation of the survival time T/C (%) ([2]; ip, 8.5 mg/kg, 720 h): 121%; Prolongation of the survival time T/C (%) ([2]; ip, 10 mg/kg, 720 h): 87%
CCC1(O)CC(OC2CC(N(C)C)C(OC3CCC(OC4CCC(O)C(C)O4)C(C)O3)C(C)O2)c2c(cc3c(c2O)C(=O)c2c(O)ccc(O)c2C3=O)C1C(=O)OC (centres unmarked) [rhodirubin B]	1.56 (≈ 1.92 µM)	0.78 (≈ 0.958 µM)	1.56 (≈ 1.92 µM)	0.4 (≈ 0.491 µM)	1.56 (≈ 1.92 µM)	0.78 (≈ 0.958 µM)	0.2 (≈ 0.246 µM)	0.4 (≈ 0.491 µM)	100 (≈ 123 µM)	> 100	3.1 (≈ 3.81 µM)	> 100	> 100	marked inhibitory effects	10 to 12.5	possess antimicrobial activity, especially against gram-positive bacteria	inhibit the growth of solid and ascitic forms of malignant tumors in mammals	slightly soluble	soluble	insoluble	antimicrobial activity ([17]; listed as Rhodirubin B): exhibit antimicrobial activity against gram-positive bacteria; cytotoxicity [20]: high cytotoxicity; toxicity [21]: low toxicity
CCC1(O)CC(OC2CC(N(C)C)C(OC3CC(O)C(OC4CCC(O)C(C)O4)C(C)O3)C(C)O2)c2c(cc3c(c2O)C(=O)c2c(O)ccc(O)c2C3=O)C1C(=O)OC (centres unmarked) [rhodirubin A]	1.56 (≈ 1.88 µM)	0.4 (≈ 0.482 µM)	0.78 (≈ 0.94 µM)	0.2 (≈ 0.241 µM)	0.78 (≈ 0.94 µM)	0.4 (≈ 0.482 µM)	0.2 (≈ 0.241 µM)	0.2 (≈ 0.241 µM)	100 (≈ 120 µM)	> 100	6.25 (≈ 7.53 µM)	> 100	> 100	marked inhibitory effects	7.5 to 10	possess antimicrobial activity, especially against gram-positive bacteria	inhibit the growth of solid and ascitic forms of malignant tumors in mammals	slightly soluble	soluble	insoluble	antimicrobial activity ([17]; listed as Rhodirubin A): exhibit antimicrobial activity against gram-positive bacteria; cytotoxicity [20]: high cytotoxicity; toxicity [21]: low toxicity

Source: patent publication US4127714A, “Anthracycline glycosides” (priority 1976, dated 1978)
